From the supplement of paper PMC10307832

How the values were obtained:
Test in all cases: relative viability (nuclei count vs DMSO), 5 days (fraction); higher = more cells survive
MLN4924 + Pictilisib = compound: NS(=O)(=O)OC[C@@H]1C[C@@H](n2ccc3c(N[C@H]4CCc5ccccc54)ncnc32)C[C@@H]1O [MLN4924] + CS(=O)(=O)N1CCN(Cc2cc3nc(-c4cccc5[nH]ncc45)nc(N4CCOCC4)c3s2)CC1 [Pictilisib] (partner 1 µM)
In short: (§1)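 Each reported value is a median over duplicate plates. It expresses relative viability: treated-well nuclei count divided by vehicle-well nuclei count. Lung cancer cell lines in 1536-well plates were dosed by pin tool a day after seeding, alone with one drug or with a fixed anchor-drug dose plus five library-drug doses (not always all listed) in √10 steps, and nuclei were counted after 5 days.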

GSK126 + Pictilisib = compound: CC[C@H](C)N1C=C(C2=C(C=C(C=C21)C3=CN=C(C=C3)N4CCNCC4)C(=O)NCC5=C(C=C(NC5=O)C)C)C [GSK126] + CS(=O)(=O)N1CCN(Cc2cc3nc(-c4cccc5[nH]ncc45)nc(N4CCOCC4)c3s2)CC1 [Pictilisib] (partner 1 µM)
In short: as §1

Carboplatin + Decitabine = compound: C1CC(C1)(C(=O)O)C(=O)O.[NH2-].[NH2-].[Pt+2] [Carboplatin] + Nc1ncn([C@H]2C[C@H](O)[C@@H](CO)O2)c(=O)n1 [Decitabine] (partner 2 µM)
In short: as §1

Carboplatin + Pictilisib = compound: C1CC(C1)(C(=O)O)C(=O)O.[NH2-].[NH2-].[Pt+2] [Carboplatin] + CS(=O)(=O)N1CCN(Cc2cc3nc(-c4cccc5[nH]ncc45)nc(N4CCOCC4)c3s2)CC1 [Pictilisib] (partner 1 µM)
In short: as §1

Row | Cell Line | relative viability (MLN4924 + Pictilisib; first compound 0.04 µM) | relative viability (MLN4924 + Pictilisib; first compound 0.1265 µM) | relative viability (MLN4924 + Pictilisib; first compound 0.4 µM) | relative viability (MLN4924 + Pictilisib; first compound 1.265 µM) | relative viability (MLN4924 + Pictilisib; first compound 4 µM) | relative viability (GSK126 + Pictilisib; first compound 0.08 µM) | relative viability (GSK126 + Pictilisib; first compound 0.253 µM) | relative viability (GSK126 + Pictilisib; first compound 0.8 µM) | relative viability (GSK126 + Pictilisib; first compound 2.53 µM) | relative viability (GSK126 + Pictilisib; first compound 8 µM) | relative viability (Carboplatin + Decitabine; first compound 0.08 µM) | relative viability (Carboplatin + Decitabine; first compound 0.253 µM) | relative viability (Carboplatin + Decitabine; first compound 0.8 µM) | relative viability (Carboplatin + Decitabine; first compound 2.53 µM) | relative viability (Carboplatin + Decitabine; first compound 8 µM) | relative viability (Carboplatin + Pictilisib; first compound 0.08 µM) | relative viability (Carboplatin + Pictilisib; first compound 0.253 µM) | relative viability (Carboplatin + Pictilisib; first compound 0.8 µM) | relative viability (Carboplatin + Pictilisib; first compound 2.53 µM) | relative viability (Carboplatin + Pictilisib; first compound 8 µM)
1 | PC-14 | 0.849 | 0.634 | 0.307 | 0.0791 | 0.0776 | 0.684 | 0.667 | 0.59 | 0.693 | 0.656 | 0.179 | 0.209 | 0.165 | 0.119 | 0.0887 | 0.815 | 0.744 | 0.62 | 0.698 | 0.349
2 | ChaGo-K-1 | 0.515 | 0.434 | 0.369 | 0.258 | 0.272 | 0.831 | 0.656 | 0.746 | 0.722 | 0.649 | 0.563 | 0.527 | 0.464 | 0.413 | 0.388 | 1.01 | 0.713 | 0.615 | 0.463 | 0.376
3 | NCI-H441 | 0.471 | 0.285 | 0.251 | 0.136 | 0.139 | 0.495 | 0.638 | 0.432 | 0.539 | 0.428 | 0.215 | 0.242 | 0.211 | 0.209 | 0.222 | 0.56 | 0.588 | 0.414 | 0.492 | 0.433
4 | NCI-H1395 | 0.626 | 0.969 | 0.425 | 0.313 | 0.339 | 0.653 | 0.653 | 0.798 | 0.699 | 0.726 | 0.797 | 0.747 | 0.63 | 0.584 | 0.516 | 0.722 | 0.548 | 0.854 | 0.548 | 0.513
5 | NCI-H661 | 0.414 | 0.567 | 0.482 | 0.343 | 0.337 | 0.43 | 0.433 | 0.401 | 0.565 | 0.345 | 0.526 | 0.577 | 0.534 | 0.521 | 0.526 | 0.431 | 0.393 | 0.368 | 0.34 | 0.402
6 | NCI-H727 | 0.4 | 0.311 | 0.268 | 0.291 | 0.244 | 0.269 | 0.367 | 0.317 | 0.367 | 0.43 | 1.12 | 0.956 | 0.882 | 0.935 | 0.861 | 0.348 | 0.512 | 0.314 | 0.29 | 0.352
7 | NCI-H1734 | 0.568 | 0.743 | 0.29 | 0.13 | 0.154 | 0.49 | 0.403 | 0.408 | 0.43 | 0.45 | 0.485 | 0.46 | 0.483 | 0.465 | 0.438 | 0.51 | 0.47 | 0.487 | 0.451 | 0.424
8 | EMC-BAC-2 | 0.242 | 0.569 | 0.213 | 0.155 | 0.192 | 0.516 | 0.549 | 0.496 | 0.53 | 0.592 | 1.01 | 0.944 | 0.999 | 0.922 | 0.716 | 0.48 | 0.538 | 0.476 | 0.56 | 0.466
9 | EKVX | 0.533 | 0.513 | 0.363 | 0.135 | 0.135 | 0.417 | 0.474 | 0.408 | 0.518 | 0.353 | 0.4 | 0.331 | 0.389 | 0.307 | 0.283 | 0.452 | 0.422 | 0.413 | 0.381 | 0.387
10 | NCI-H596 | 0.419 | 0.448 | 0.273 | 0.379 | 0.349 | 0.386 | 0.404 | 0.378 | 0.382 | 0.37 | 1.16 | 1.13 | 0.986 | 0.958 | 0.629 | 0.455 | 0.36 | 0.389 | 0.333 | 0.373
11 | NCI-H358 | 0.481 | 0.496 | 0.227 | 0.175 | 0.188 | 0.32 | 0.347 | 0.37 | 0.332 | 0.442 | 0.213 | 0.222 | 0.201 | 0.201 | 0.186 | 0.373 | 0.366 | 0.321 | 0.448 | 0.376
12 | LOU-NH91 | 0.53 | 0.574 | 0.515 | 0.393 | 0.434 | 0.519 | 0.501 | 0.557 | 0.524 | 0.545 | 0.873 | 0.832 | 0.806 | 0.792 | 0.77 | 0.551 | 0.57 | 0.5 | 0.525 | 0.576
13 | NCI-H1437 | 0.423 | 0.409 | 0.355 | 0.0891 | 0.081 | 0.44 | 0.504 | 0.406 | 0.455 | 0.405 | 0.508 | 0.556 | 0.529 | 0.508 | 0.464 | 0.433 | 0.401 | 0.414 | 0.381 | 0.413
14 | H3255 | 0.453 | 0.382 | 0.317 | 0.203 | 0.217 | 0.472 | 0.512 | 0.492 | 0.466 | 0.441 | 0.775 | 0.504 | 0.687 | 0.622 | 0.421 | 0.54 | 0.504 | 0.375 | 0.407 | 0.425
15 | NCI-H1666 | 0.404 | 0.478 | 0.247 | 0.159 | 0.156 | 0.558 | 0.483 | 0.379 | 0.384 | 0.528 | 0.715 | 0.824 | 0.774 | 0.752 | 0.653 | 0.527 | 0.561 | 0.404 | 0.403 | 0.389
16 | HCC-78 | 0.272 | 0.187 | 0.14 | 0.138 | 0.139 | 0.25 | 0.201 | 0.178 | 0.217 | 0.237 | 0.659 | 0.61 | 0.709 | 0.656 | 0.73 | 0.213 | 0.228 | 0.194 | 0.217 | 0.21
17 | SK-LU-1 | 0.411 | 0.505 | 0.383 | 0.171 | 0.172 | 0.657 | 0.699 | 0.587 | 0.667 | 0.694 | 0.719 | 0.677 | 0.625 | 0.586 | 0.46 | 0.542 | 0.664 | 0.528 | 0.542 | 0.411
18 | LU99A | 0.334 | 0.299 | 0.226 | 0.153 | 0.137 | 0.33 | 0.32 | 0.284 | 0.342 | 0.362 | 0.862 | 0.869 | 0.864 | 0.731 | 0.724 | 0.3 | 0.379 | 0.323 | 0.328 | 0.307
19 | RERF-LC-KJ | 0.532 | 0.315 | 0.154 | 0.139 | 0.192 | 0.551 | 0.554 | 0.589 | 0.529 | 0.55 | 0.627 | 0.665 | 0.646 | 0.574 | 0.422 | 0.584 | 0.48 | 0.512 | 0.453 | 0.316
20 | NCI-H2126 | 0.497 | 0.457 | 0.315 | 0.267 | 0.264 | 0.497 | 0.531 | 0.523 | 0.496 | 0.502 | 0.607 | 0.573 | 0.544 | 0.59 | 0.51 | 0.47 | 0.516 | 0.518 | 0.511 | 0.452
21 | LXF-289 | 0.683 | 0.688 | 0.374 | 0.134 | 0.0975 | 0.835 | 0.791 | 0.732 | 0.769 | 0.8 | 0.395 | 0.407 | 0.382 | 0.358 | 0.31 | 0.889 | 0.883 | 0.8 | 0.832 | 0.766
22 | BEN | 0.566 | 0.398 | 0.254 | 0.163 | 0.155 | 0.706 | 0.569 | 0.582 | 0.541 | 0.438 | 0.87 | 0.714 | 0.691 | 0.634 | 0.599 | 0.69 | 0.587 | 0.515 | 0.525 | 0.609
23 | NCI-H1993 | 0.701 | 0.681 | 0.7 | 0.647 | 0.643 | 0.841 | 0.795 | 0.828 | 0.902 | 0.782 | 0.64 | 0.661 | 0.559 | 0.559 | 0.473 | 0.805 | 0.891 | 0.745 | 0.869 | 0.811
24 | SW 1573 | 0.487 | 0.637 | 0.22 | 0.0805 | 0.0657 | 0.568 | 0.485 | 0.528 | 0.486 | 0.559 | 0.493 | 0.524 | 0.587 | 0.4 | 0.26 | 0.408 | 0.603 | 0.492 | 0.555 | 0.399
25 | A549 | 0.5 | 0.474 | 0.246 | 0.0557 | 0.0729 | 0.506 | 0.479 | 0.485 | 0.46 | 0.53 | 0.259 | 0.338 | 0.279 | 0.231 | 0.18 | 0.579 | 0.51 | 0.527 | 0.459 | 0.125
26 | NCI-H520 | 0.322 | 0.402 | 0.359 | 0.276 | 0.238 | 0.265 | 0.261 | 0.271 | 0.256 | 0.281 | 0.551 | 0.545 | 0.449 | 0.457 | 0.438 | 0.357 | 0.227 | 0.27 | 0.297 | 0.258
27 | LCLC-97TM1 | 0.159 | 0.224 | 0.132 | 0.129 | 0.104 | 0.22 |  | 0.229 | 0.285 | 0.18 | 0.299 | 0.206 | 0.208 | 0.218 | 0.191 | 0.209 |  | 0.233 | 0.194 | 0.18
28 | HCC-827 | 1.12 | 0.641 | 0.808 | 0.382 | 0.311 | 1.19 | 1.25 | 1.01 | 0.953 | 1.12 | 0.354 | 0.321 | 0.248 | 0.19 | 0.304 | 0.886 | 0.923 | 0.79 | 0.846 | 0.897
29 | NCI-H1975 | 0.534 | 0.699 | 0.314 | 0.167 | 0.156 | 0.328 | 0.301 | 0.321 | 0.291 | 0.274 | 0.416 | 0.399 | 0.402 | 0.43 | 0.367 | 0.324 | 0.305 | 0.306 | 0.315 | 0.302
